From patent US11786535B1, “Methods of inhibiting cyclooxygenase” (KING FAISAL UNIVERSITY, priority 2023, dated 2023)

What was measured:
COX-1 = COX-1 (Ovis aries, UniProt P05979); test: COX inhibitor screening assay kit, COX-1; assay type: biochemical; conditions: three separate experiments
Protocol: (§1) In test tubes, 25 mM Tris-HCl, pH 8.0, containing 5 mM EDTA, phenol, and 1 mM hematin was added. The test compounds were dissolved in DMSO and added in concentrations ranging from […] Dimethyl sulfoxide alone was applied to control test containers. COX-1 or COX-2 enzymes were added to the test tubes, which were then preincubated for 10 minutes at 37° C. The arachidonic acid substrate was added, and the tubes were further incubated at 37° C. for 2 minutes. The compound's immunochemical assay was used to calculate the amount of prostaglandin produced.
(§2) Three separate experiments were used to calculate the IC50 values. The selectivity index was calculated as follows: […]

COX-2 = COX-2 (Homo sapiens (Human), UniProt P35354); test: COX inhibitor screening assay kit, COX-2; assay type: biochemical; conditions: for SI (selectivity index): calculated from COX-1 and COX-2 IC50; for IC50: three separate experiments
Chain of COX-2 (P35354 18-604): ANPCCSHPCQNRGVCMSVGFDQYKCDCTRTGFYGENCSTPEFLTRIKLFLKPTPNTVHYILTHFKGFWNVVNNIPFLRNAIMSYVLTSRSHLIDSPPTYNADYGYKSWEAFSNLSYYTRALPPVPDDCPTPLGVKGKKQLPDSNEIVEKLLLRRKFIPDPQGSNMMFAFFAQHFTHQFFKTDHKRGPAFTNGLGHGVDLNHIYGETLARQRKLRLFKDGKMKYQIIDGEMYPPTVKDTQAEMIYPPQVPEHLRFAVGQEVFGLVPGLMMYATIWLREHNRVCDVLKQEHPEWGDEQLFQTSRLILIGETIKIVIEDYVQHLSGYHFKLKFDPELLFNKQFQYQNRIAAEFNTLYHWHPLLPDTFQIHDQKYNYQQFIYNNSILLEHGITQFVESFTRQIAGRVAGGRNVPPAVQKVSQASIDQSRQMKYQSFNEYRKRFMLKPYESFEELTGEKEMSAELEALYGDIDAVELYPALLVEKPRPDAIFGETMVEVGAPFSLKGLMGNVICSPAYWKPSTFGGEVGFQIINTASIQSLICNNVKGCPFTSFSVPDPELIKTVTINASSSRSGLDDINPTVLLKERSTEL
Protocol: as §1, §2

Chain of COX-1 (P05979 25-600 limits assumed): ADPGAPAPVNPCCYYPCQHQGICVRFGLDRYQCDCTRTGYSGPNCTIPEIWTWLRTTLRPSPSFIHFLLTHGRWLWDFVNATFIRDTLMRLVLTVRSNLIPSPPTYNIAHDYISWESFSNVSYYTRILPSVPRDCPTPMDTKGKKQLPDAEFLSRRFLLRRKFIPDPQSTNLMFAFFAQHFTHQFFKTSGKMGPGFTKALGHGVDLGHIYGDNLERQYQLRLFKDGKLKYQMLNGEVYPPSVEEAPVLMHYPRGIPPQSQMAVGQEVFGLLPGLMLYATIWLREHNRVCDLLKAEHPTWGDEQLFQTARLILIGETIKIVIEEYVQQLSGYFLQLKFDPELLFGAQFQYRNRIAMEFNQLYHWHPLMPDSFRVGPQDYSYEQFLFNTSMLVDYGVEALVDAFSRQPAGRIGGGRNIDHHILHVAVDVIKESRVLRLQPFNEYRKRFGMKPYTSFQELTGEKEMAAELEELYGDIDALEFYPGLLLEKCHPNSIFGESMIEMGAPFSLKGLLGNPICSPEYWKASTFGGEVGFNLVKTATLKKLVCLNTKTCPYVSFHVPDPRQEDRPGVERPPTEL

Structure (SMILES)	IC50 (COX-1) [µM]	SI (selectivity index) (COX-2)	IC50 (COX-2) [µM]
O=C(O)COc1ccc(Cl)cc1C1CC(=O)Nc2cc3[nH]ncc3cc21 (stereo not drawn) [Compound 4, [4-chloro-2-(7-oxo-5,6,7,8-tetrahydro-1H-pyrazole[4,3-g]quinoline-5-yl)phenoxy]acetic acid]	9.19 ± 0.046	95.068	0.097 ± 0.015
COc1ccc(CN(Cc2ccc(F)cc2)CC2CCCO2)cc1CO (stereo not drawn) [Compound 1]	7.62 ± 0.05	36.3	0.21 ± 0.01
COc1cccc(-c2nn(-c3ccccc3)cc2CN(C)CCc2cn[nH]c2)c1 [Compound 2, N-{[3-(3-methoxyphenyl)-1-phenyl-1H-pyrazol-4-yl]methyl}-N-methyl-2-(1H-pyrazol-4-yl)ethanamine]	10.6 ± 0.33	132.64	0.08 ± 0.009
O=C(O)CC1COCCN1Cc1cccc(-c2ccccn2)c1 (stereo not drawn) [Compound 3, {4-[3-(2-pyridinyl)benzyl]-3-morpholinyl}acetic acid]	11.5 ± 0.13	190.88	0.06 ± 0.075
